Patent publication US20110039890A1, “4-[2,3-Difluoro-6-(2-fluoro-4-methyl-phenylsulfanyl)-phenyl]-piperidine” (H. LUNDBECK A/S, priority 2007, published 2011)

Legend:
[1] = target: T1, [3H]-serotonin reuptake (SERT) (Rattus norvegicus, UniProt P31652); assay: inhibition of [3H]-serotonin reuptake in rat synaptosomes; format: biochemical
T1 construct: from tissue
Description: (§1) IC50 (nM) values Compound I inhibition of the reuptake in rat synaptosomes:
(§2) [^3H]-serotonin: 2.4 [^3H]-noradrenaline: 12

[2] = target: T2, [3H]-noradrenaline reuptake (NAT) (Rattus norvegicus, UniProt Q63380); assay: inhibition of [3H]-noradrenaline reuptake in rat synaptosomes; format: biochemical
T2 construct: from tissue
T2 sequence (Q63380 1-617): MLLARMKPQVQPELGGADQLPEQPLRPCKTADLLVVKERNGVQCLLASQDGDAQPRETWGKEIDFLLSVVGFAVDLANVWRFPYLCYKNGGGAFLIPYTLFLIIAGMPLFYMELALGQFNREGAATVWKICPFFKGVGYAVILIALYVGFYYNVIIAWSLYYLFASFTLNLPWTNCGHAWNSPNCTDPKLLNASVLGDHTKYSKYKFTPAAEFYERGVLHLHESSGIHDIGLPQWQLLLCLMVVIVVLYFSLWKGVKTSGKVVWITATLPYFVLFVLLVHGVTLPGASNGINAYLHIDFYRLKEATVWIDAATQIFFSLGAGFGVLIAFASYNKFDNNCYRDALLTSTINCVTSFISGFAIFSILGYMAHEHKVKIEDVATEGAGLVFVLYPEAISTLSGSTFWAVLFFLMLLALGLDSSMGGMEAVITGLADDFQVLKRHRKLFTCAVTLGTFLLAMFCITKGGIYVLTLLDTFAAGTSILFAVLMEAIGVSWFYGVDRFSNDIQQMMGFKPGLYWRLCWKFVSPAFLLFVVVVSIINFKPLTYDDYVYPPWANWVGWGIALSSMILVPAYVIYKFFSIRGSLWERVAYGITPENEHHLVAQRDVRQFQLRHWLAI
Description: as §1, §2

5-HT2A receptor [3] = target: T3, 5-HT2A receptor (Homo sapiens, UniProt P28223); assay: affinity to human serotonin receptor 5-HT2A; format: binding; details: calculated from the Cheng-Prusoff equation
T3 sequence (P28223 whole entry): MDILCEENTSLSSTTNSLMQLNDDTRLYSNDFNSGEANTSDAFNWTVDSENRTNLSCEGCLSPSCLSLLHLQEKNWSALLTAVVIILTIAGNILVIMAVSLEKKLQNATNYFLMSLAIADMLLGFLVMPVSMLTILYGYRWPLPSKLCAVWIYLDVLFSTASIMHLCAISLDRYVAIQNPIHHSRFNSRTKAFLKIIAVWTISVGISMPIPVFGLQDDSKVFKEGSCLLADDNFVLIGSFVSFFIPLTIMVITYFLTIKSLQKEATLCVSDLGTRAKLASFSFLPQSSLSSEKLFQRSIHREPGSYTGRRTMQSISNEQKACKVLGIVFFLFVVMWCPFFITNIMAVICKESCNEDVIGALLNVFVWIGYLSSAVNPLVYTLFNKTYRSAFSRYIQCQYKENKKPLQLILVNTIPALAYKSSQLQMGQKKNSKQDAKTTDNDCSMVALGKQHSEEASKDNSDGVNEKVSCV
Description: (§3) Affinity (Ki, nM) for compound I to human serotonin receptors calculated from the Cheng-Prusoff equation

[4] = tested on: mice, formalin-injected hind paw; assay: formalin model of neuropathic pain; format: in vivo; details: for time spent licking the injured paw, 0-5 minutes: first phase, vehicle 51; for time spent licking the injured paw, 20-30 minutes: second phase, vehicle 66
Experimental: There are several well validated animal models of neuropathic pain available for assess of antinociceptive potential of drugs. Among the most frequently used model are chronic constriction injury models (for example Bennett and Xie, Pain, 1988) and the capsaicin (Gilchrist et al., Pain 1996) and formalin [Neuropharm., 48, 252-263, 2005; Pain, 51, 5-17, 1992] models. […] In this model, mice receive an injection of formalin (4.5%, 20 μl) into the plantar surface of the left hind paw and are afterwards placed into individual glass beakers (2 l capacity) for observation. The irritation caused by the formalin injection elicits a characteristic biphasic behavioural response, as quantified by the amount of time spent licking the injured paw. The first phase (˜0-10 minutes) represents direct chemical irritation and nociception, whereas the second (˜20-30 minutes) is thought to represent pain of neuropathic origin. The two phases are separated by a quiescent period in which behaviour returns to normal. Measuring the amount of time spent licking the injured paw in the two phases assesses the effectiveness of test compounds to reduce the neuropathic-like pain response.

5-HT2C receptor [5] = target: T4, 5-HT2C receptor (Homo sapiens, UniProt P28335); assay: affinity to human serotonin receptor 5-HT2C; format: binding; details: calculated from the Cheng-Prusoff equation
T4 sequence (P28335 33-458): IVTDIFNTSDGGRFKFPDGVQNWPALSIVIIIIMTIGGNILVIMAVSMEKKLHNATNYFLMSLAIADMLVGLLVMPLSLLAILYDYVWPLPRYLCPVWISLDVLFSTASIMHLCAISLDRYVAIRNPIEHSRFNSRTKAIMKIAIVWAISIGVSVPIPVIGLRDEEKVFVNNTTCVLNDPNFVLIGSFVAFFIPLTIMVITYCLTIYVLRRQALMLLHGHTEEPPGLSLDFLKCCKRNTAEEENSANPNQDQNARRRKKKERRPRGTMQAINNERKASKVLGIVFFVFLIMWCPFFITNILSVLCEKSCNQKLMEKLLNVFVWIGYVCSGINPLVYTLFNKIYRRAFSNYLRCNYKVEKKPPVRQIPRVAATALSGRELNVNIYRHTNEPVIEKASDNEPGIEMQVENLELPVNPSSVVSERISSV
Description: as §3

5-HT2C receptor [6] = target: T4, 5-HT2C receptor; assay: functional assay, 5-HT2C antagonism; format: cell-based; details: read-out: Kb, antagonist of the 5-HT2C receptor
5-HT2A receptor [7] = target: T3, 5-HT2A receptor; assay: functional FLIPR assay, 5-HT2A antagonism; format: cell-based; details: read-out: Kb, antagonist of the 5-HT2A receptor

T1 sequence (P31652 whole entry): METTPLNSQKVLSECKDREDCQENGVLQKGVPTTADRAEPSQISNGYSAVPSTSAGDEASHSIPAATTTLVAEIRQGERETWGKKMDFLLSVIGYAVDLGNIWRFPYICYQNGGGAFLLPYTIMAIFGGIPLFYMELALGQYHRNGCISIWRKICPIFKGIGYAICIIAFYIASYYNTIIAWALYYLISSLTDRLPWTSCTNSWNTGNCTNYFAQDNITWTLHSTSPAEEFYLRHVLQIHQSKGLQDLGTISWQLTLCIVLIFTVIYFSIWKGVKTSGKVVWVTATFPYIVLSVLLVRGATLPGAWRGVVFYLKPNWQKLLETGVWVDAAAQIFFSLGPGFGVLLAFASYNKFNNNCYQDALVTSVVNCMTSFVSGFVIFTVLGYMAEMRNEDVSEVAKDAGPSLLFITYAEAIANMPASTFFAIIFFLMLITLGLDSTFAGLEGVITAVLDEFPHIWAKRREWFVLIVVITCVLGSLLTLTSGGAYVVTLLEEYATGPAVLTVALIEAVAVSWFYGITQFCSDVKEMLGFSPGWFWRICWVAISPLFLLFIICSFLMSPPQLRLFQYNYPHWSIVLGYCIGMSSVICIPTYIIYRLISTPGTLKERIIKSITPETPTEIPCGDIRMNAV

Cc1ccc(Sc2ccc(F)c(F)c2C2CCNCC2)c(F)c1 [compound I, 4-[2,3-difluoro-6-(2-fluoro-4-methyl-phenylsulfanyl)-phenyl]-piperidine] was tested, and the IC50 [1] was 2.4 nM, the IC50 [2] was 12 nM and the Ki (5-HT2A receptor [3]) was 13 nM. The “time spent licking the injured paw, 0-5 minutes” value ([4]; 0.25 mg/kg s.c) was 40 s, the “time spent licking the injured paw, 20-30 minutes” value ([4]; 0.25 mg/kg s.c) was 48 s and the “time spent licking the injured paw, 0-5 minutes” value ([4]; 1 mg/kg s.c) was 40 s. For the same compound, the “time spent licking the injured paw, 20-30 minutes” value ([4]; 1 mg/kg s.c) was 21 s, the “time spent licking the injured paw, 0-5 minutes” value ([4]; 2.5 mg/kg s.c) was 31 s and the “time spent licking the injured paw, 20-30 minutes” value ([4]; 2.5 mg/kg s.c) was 7 s. The “effect in the first phase (direct chemical irritation and nociception)” value ([4]; 0.25-2.5 mg/kg s.c, in words) was “little effect”, the “effect on time spent licking the injured paw in the second phase (neuropathic pain)” value ([4]; 0.25-2.5 mg/kg s.c, in words) was “clear and dose-dependent decrease” and the Ki (5-HT2C receptor [5]) was 4.9 nM. It also gave a Kb (5-HT2C receptor [6]) of ~35 nM and a Kb (5-HT2A receptor [7]) of ~130 nM.
